Measurements: patent publication US7598397B2, “Sulfonamide peri-substituted bicyclics for occlusive artery disease” (deCODE genetics ehf, priority 2004, dated 2009)
Read-outs that look alike come from different tables or passages of the source.

What was measured:
[1] = molecular target: T1, prostanoid EP3 receptors (Homo sapiens, UniProt P43115); experiment: binding on prostanoid EP3 receptors (method of Abramovitz et al.); conditions: read-out: Activity (EP3 receptor binding, IC50 class)
T1 sequence (P43115 1-390): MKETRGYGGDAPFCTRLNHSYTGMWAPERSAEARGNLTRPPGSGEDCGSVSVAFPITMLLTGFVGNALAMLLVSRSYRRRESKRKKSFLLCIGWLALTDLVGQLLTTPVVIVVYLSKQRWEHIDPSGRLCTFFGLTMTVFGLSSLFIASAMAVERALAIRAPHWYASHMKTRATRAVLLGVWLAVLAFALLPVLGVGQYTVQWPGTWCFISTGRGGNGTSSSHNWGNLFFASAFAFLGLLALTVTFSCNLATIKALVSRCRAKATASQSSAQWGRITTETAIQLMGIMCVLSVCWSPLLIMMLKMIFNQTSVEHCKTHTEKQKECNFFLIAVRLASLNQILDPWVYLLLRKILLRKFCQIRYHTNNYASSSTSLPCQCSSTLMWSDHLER
Method: The compounds of the invention were assayed for their binding on prostanoid EP3 receptors according to the method of Abramovitz et al. [Bioch. Biophys.

[2] = tested on: human platelets; experiment: platelet aggregation in vitro, human platelets; format: cell-based; conditions: Serum % 50, read-out: IC50 (nM) for Test Compounds
Method: (§1) The compounds of the invention were assayed for their effects on platelet aggregation in vitro. In experiments with human platelets, whole blood was extracted from overnight-fasted human donors. Each experiment was performed with blood from single individual. In experiments with rodent platelets, whole blood was gathered from the heart of female mice or male rats under isofluran (Abbott) anaesthesia. Blood was pooled from two or ten individual rodents for each experiment in the case of rat and mouse experiments, respectively. In all cases, blood was collected into 3.8% sodium citrate tubes (Greiner Bio-one). Platelet-rich plasma (PRP) was obtained by centrifugation at 100×g for 15 min at 25° C. for humans, at 150×g for rats, or at 80×g for 10 min for mice. Platelet-poor plasma was obtained by centrifugation of the remaining blood at 2,400×g for 10 min at 25° C. After counting in an Autocounter (Model 920 EO, Swelab) platelets were diluted when necessary to the desired stock concentrations (200,000-300,000 platelets/μl) using 0.9% NaCl isotonic solution (Braun).
Platelet aggregation was determined by light absorbance using a platelet aggregometer with constant magnetic stirring (Model 490, Chronolog Cop., Havertown, Pa., USA), using a volume of 500 μl per cuvette. During the performance of the experiments, platelet solution was continually agitated by mild horizontal shaking. Collagen (Sigma) and PGE2 or sulprostone (Cayman Chemicals) were used as accelerants of platelet aggregation. Compounds used for this assay were dissolved and stored in a 100% DMSO solution. After dilution, the final DMSO concentration in the assay was lower than 0.1% v/v. […] Acceleration agents and EP3 test compounds were diluted in isotonic solution at the desired concentration. Sigmoidal non-lineal regression was used to calculate the concentration of test compound required to inhibit platelet aggregation by 50% (IC50). IC50 values of test compounds were calculated using GraphPad Prism 3.02 for Windows (GraphPad Software, San Diego Calif. USA). […]

[3] = tested on: rat platelets; experiment: platelet aggregation in vitro, rat platelets; format: cell-based; conditions: Serum % 20, read-out: IC50 (nM) for Test Compounds
Method: as §1
Platelet aggregation was determined by light absorbance using a platelet aggregometer with constant magnetic stirring (Model 490, Chronolog Cop., Havertown, Pa., USA), using a volume of 500 μl per cuvette. […] IC50 values of test compounds were calculated using GraphPad Prism 3.02 for Windows (GraphPad Software, San Diego Calif. USA). […]

[4] = tested on: female C57BL/6 mice; experiment: pulmonary thromboembolism induced by arachidonic acid (platelet aggregation in vivo); parameters: species or system mouse; conditions: 100 mg/kg orally, 30 min before arachidonic acid 30 mg/kg i.v.; survival one hour after challenge
Method: The compounds of the invention also were assayed for their effects on platelet aggregation in vivo. An in vivo test of platelet activation is the induction of pulmonary thromboembolism by arachidonic acid, a precursor of prostaglandin formation. Inhibitors of prostaglandin synthesis, e.g., a COX-1 inhibitor such as asprin, are protective in the assay. For the pulmonary thromboembolism assay, concious female C57BL/6 mice were dosed orally with the test compounds and 30 min later thromboembolism was induced by injection of arachidonic acid into a tail vein at a dose of 30 mg per kg body weight. Survival was evaluated one hour after the challenge with arachidonic acid, as mice that survive for that length of time usually recovered fully. The arachidonic acid injection was given via a lateral tail vein in a mouse that had been warmed briefly under a heat lamp (dilation of the tail veins using heat facilitates placing the injection). An insulin syringe, 0.5 mL (from Becton Dickinson) was used for dosing. The dose volume given of both the test compound and the arachidonic acid was adjusted to the weight of the mouse (the dose volume p.o. for test compounds and i.v. for arachidonic acid solution was 10 μL and 5 μL per gram body weight, respectively). The survival rate for mice treated with arachidonic acid only was 1 per 10 mice evaluated or 10%. Survival rates for mice treated with test compounds (100 mg/kg, orally) and then arachidonic acid are shown below in Table 4.

| Compound | IC50 [1] [µM] | further results |
| --- | --- | --- |
| Cc1cn(Cc2ccc(Cl)cc2Cl)c2c(C=CC(=O)NS(=O)(=O)c3cc(Cl)c(Cl)s3)cc(F)cc12 [Compound P067] | < 1 | IC50 ([2]; Homo sapiens, agonist PGE2 (940 nM) and collagen (0.125 ug.mL)): 5.15 nM; IC50 ([2]; Homo sapiens, agonist Sulprostone (100 nM) and collagen (0.125 ug.mL)): 9.21 nM; IC50 ([3]; agonist PGE2 (940 nM) and collagen (2.0 ug.mL)): 304 nM; IC50 ([3]; agonist Sulprostone (100 nM) and collagen (2.0 ug.mL)): 87.8 nM; No. mice surviving/Total no. of mice evalauted [4]: 15/22; Survival rate [4]: 68% |
| Cc1cn(Cc2ccc3ccccc3c2)c2c(C=CC(=O)NS(=O)(=O)c3cc(Cl)c(Cl)s3)cc(F)cc12 [Compound P068] |  | No. mice surviving/Total no. of mice evalauted [4]: 4/14; Survival rate [4]: 28% |
| O=C(COc1cccc2[nH]cc(S(=O)(=O)c3ccc4ccccc4c3)c12)NS(=O)(=O)c1cc(Cl)c(Cl)s1 [Compound P150] |  | No. mice surviving/Total no. of mice evalauted [4]: 4/8; Survival rate [4]: 50% |
| CC12CCCC(C=CC(=O)NS(=O)(=O)c3cc(Cl)c(Cl)s3)=C1N(Cc1ccc3ccccc3c1)C(=O)C2 (centres unmarked) [Compound P253] | < 1 | IC50 ([2]; agonist Sulprostone (100 nM) and collagen (0.125 ug.mL)): 15.9 nM |
| Cc1cn(CCC(=O)NS(=O)(=O)c2ccc(F)c(F)c2)c2c(Oc3ccc(Cl)c(Cl)c3)cc(F)cc12 [Compound P387] | < 1 |  |
| Cc1cn(CCC(=O)NS(=O)(=O)c2cc(Cl)c(Cl)s2)c2c(Oc3ccc(Cl)c(Cl)c3)cc(F)cc12 [Compound P388] | < 1 |  |
| Cc1cn(Cc2ccccc2C#N)c2c(/C=C/C(=O)NS(=O)(=O)c3cc(Cl)c(Cl)s3)cc(F)cc12 [Compound P389] | < 1 |  |
| Cn1cc(C=CC(=O)NS(=O)(=O)c2ccc(F)c(F)c2)c2c(Oc3cnc4ccccc4n3)cccc21 [Compound P393] | < 1 |  |
| Cn1cc(C=CC(=O)NS(=O)(=O)c2cc(F)c(F)cc2F)c2c(Oc3cnc4ccccc4n3)cccc21 [Compound P394] | < 1 |  |
| O=Cc1cn(Cc2ccc(Cl)cc2Cl)c2c(C=CC(=O)NS(=O)(=O)c3cc(Cl)c(Cl)s3)cc(F)cc12 [Compound P396] | < 1 |  |
| O=C(C=Cc1cc(F)cc2c(CO)cn(Cc3ccc(Cl)cc3Cl)c12)NS(=O)(=O)c1cc(Cl)c(Cl)s1 [Compound P397] | < 1 |  |
| O=C(C=Cc1cc(F)cc2c(C(=O)O)cn(Cc3ccc(Cl)cc3Cl)c12)NS(=O)(=O)c1cc(Cl)c(Cl)s1 [Compound P398] | < 1 |  |
| Cc1cn(Cc2cn3ccccc3n2)c2c(/C=C/C(=O)NS(=O)(=O)c3cccc(Cl)c3)cc(F)cc12 [Compound P400] | < 1 |  |
| Cc1cn(Cc2cn3ccccc3n2)c2c(C=CC(=O)NS(=O)(=O)c3cccc(F)c3)cc(F)cc12 [Compound P401] | < 1 |  |
| Cc1cn(Cc2cn3ccccc3n2)c2c(C=CC(=O)NS(=O)(=O)c3cc(F)c(F)cc3F)cc(F)cc12 [Compound P402] | < 1 |  |
| Cc1cn(Cc2cn3ccccc3n2)c2c(C=CC(=O)NS(=O)(=O)c3ccc(Cl)cc3)cc(F)cc12 [Compound P405] | < 1 |  |
| Cc1cn(Cc2cn3ccccc3n2)c2c(C=CC(=O)NS(=O)(=O)c3ccc(Cl)c(Cl)c3)cc(F)cc12 [Compound P406] | < 1 |  |
| Cc1cn(Cc2cn3ccccc3n2)c2c(C=CC(=O)NS(=O)(=O)c3cc(F)ccc3F)cc(F)cc12 [Compound P407] | < 1 |  |
| Cc1cn(Cc2cn3ccccc3n2)c2c(C=CC(=O)NS(=O)(=O)c3cc(Cl)cc(Cl)c3)cc(F)cc12 [Compound P408] | < 1 |  |
| Cc1cn(Cc2cn3ccccc3n2)c2c(C=CC(=O)NS(=O)(=O)c3ccccc3F)cc(F)cc12 [Compound P409] | < 1 |  |
| CC12CCCC(CCC(=O)NS(=O)(=O)c3cc(F)c(F)cc3F)C1N(Cc1ccc(F)c(F)c1)C(=O)C2 (centres unmarked) [Compound P410] | < 1 |  |
| Cn1cc(CCC(=O)NS(=O)(=O)c2cc(F)c(F)cc2F)c2c(Oc3ccc4ccccc4c3)cccc21 [Compound P412] | < 1 |  |
| Cc1cn(Cc2cn3ccccc3n2)c2c(C=CC(=O)NS(=O)(=O)c3ccc(F)cc3F)cc(F)cc12 [Compound P413] | < 1 |  |
| CC12CCCC(CCC(=O)NS(=O)(=O)c3cc(Cl)c(Cl)s3)C1N(Cc1ccc(F)c(F)c1)C(=O)C2 (centres unmarked) [Compound P415] | < 1 |  |
| O=C(C=Cc1cccc2c1N(Cc1ccc3ccccc3c1)C(=O)C2)NS(=O)(=O)c1cc(F)c(F)cc1F [Compound P416] | < 1 |  |
| Cc1cn(Cc2ccc(Cl)cc2Cl)c2c(C(=O)NS(=O)(=O)c3ccc(F)c(F)c3)cc(F)cc12 [Compound P417] | < 1 |  |
